Drawing on PubChem BioAssay (NCI), this text covers TGI and GI50 for 19 compounds.

Some test systems named below: 786-0 renal; A498 renal; HCT-116 colon; MCF7 breast; NCI-H226 lung; NCI-H522 lung; OVCAR-3 ovarian; OVCAR-4 ovarian; SF-268 CNS; SK-OV-3 ovarian.
What all share (test): growth of human tumour cells (NCI), 48 h

Structures are written as SMILES.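 1) Cells in 96-well plates. 2) Compound, 48 h, 5 concentrations. 3) Linear interpolation between surrounding doses. 4) Unreached endpoint = highest concentration. At the GI50, growth is halved. Definition used: TGI = concentration required for complete inhibition of growth.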

`CC(=O)c1c(-c2cccc3ccccc23)c(C#N)c(=S)n(C2OC(CO)C(O)C(O)C2O)c1C` (stereo unspecified): the TGI in the experiment on 786-0 renal, in the experiment with A498 renal, in the experiment with HCT-116 colon, in the experiment on MCF7 breast, with NCI-H226 lung and in the experiment on NCI-H522 lung was more than 100 µM in each case. Besides, the TGI in the experiment on OVCAR-3 ovarian, in the experiment with OVCAR-4 ovarian, with SF-268 CNS and with SK-OV-3 ovarian was more than 100 µM throughout.

`CN1CCC(CNc2cc(C3(C(=O)Nc4cc(C(=O)Nc5ccc(Cl)c(C(F)(F)F)c5)ccc4F)CC3)ncn2)CC1`: the GI50 was 2.52 µM in the experiment with A498 renal; 1.97 µM in the experiment on MCF7 breast; 13.6 µM in the experiment with NCI-H226 lung; 2.01 µM in the experiment on NCI-H522 lung; 2.57 µM with OVCAR-3 ovarian; 13.6 µM in the experiment on OVCAR-4 ovarian. Further, the GI50 in the experiment with SF-268 CNS is 2.08 µM; in the experiment with SK-OV-3 ovarian, 2.17 µM. The TGI was determined as 7.87 µM with A498 renal; 5.24 µM in the experiment on MCF7 breast; 36.1 µM in the experiment on NCI-H226 lung; 4.55 µM with NCI-H522 lung; 8.44 µM in the experiment on OVCAR-3 ovarian; 39.5 µM in the experiment with OVCAR-4 ovarian. Further, the values for the TGI with SF-268 CNS and in the experiment on SK-OV-3 ovarian were 5.5 µM and 4.58 µM, respectively.

For `CC(=O)Nc1ccc2c(C)c3c(nc2n1)[nH]c1ccccc13`, the TGI is more than 100 µM with 786-0 renal; more than 100 µM in the experiment on A498 renal; 58.4 µM in the experiment with HCT-116 colon; more than 100 µM with MCF7 breast; 67.9 µM with NCI-H226 lung; 53.2 µM with NCI-H522 lung. Moreover, the figures for the TGI with OVCAR-3 ovarian, in the experiment with OVCAR-4 ovarian and in the experiment on SF-268 CNS were 65.5 µM, more than 100 µM and more than 100 µM, respectively.

For `Cc1ccc(C(=N)c2ccccc2Cc2cccc3ccccc23)c2ccccc12`, the TGI in the experiment on 786-0 renal, in the experiment with A498 renal, in the experiment on HCT-116 colon, in the experiment with MCF7 breast, in the experiment on NCI-H226 lung and in the experiment with NCI-H522 lung was more than 100 µM each time. The TGI in the experiment with OVCAR-3 ovarian, in the experiment on OVCAR-4 ovarian, in the experiment with SF-268 CNS and in the experiment on SK-OV-3 ovarian was more than 100 µM each time.

For the compound `CCCCCOc1ccc(C=Nc2ccc(CCc3ccc(N=Cc4ccc(OCCCCC)cc4)cc3)cc2)cc1`, the TGI in the experiment on A498 renal, in the experiment with HCT-116 colon, in the experiment on MCF7 breast, with NCI-H226 lung, with NCI-H522 lung and in the experiment on OVCAR-3 ovarian was more than 100 µM in each case. Moreover, the TGI with OVCAR-4 ovarian, in the experiment on SF-268 CNS and with SK-OV-3 ovarian was more than 100 µM throughout.

Turning to `COC1CC(N)(c2ccccc2)C(O)C(C)O1` (stereo unspecified), the TGI with 786-0 renal, in the experiment on A498 renal, with HCT-116 colon, with MCF7 breast, with NCI-H226 lung and with NCI-H522 lung was more than 100 µM in each case. Moreover, the TGI with OVCAR-3 ovarian, in the experiment on OVCAR-4 ovarian, in the experiment with SF-268 CNS and with SK-OV-3 ovarian was more than 100 µM in each case.

For `O=C(O)CCc1nc2c(n1-c1ccccc1)C(=O)c1ccccc1C2=O`, the TGI in the experiment on 786-0 renal, in the experiment with A498 renal, in the experiment on HCT-116 colon, in the experiment on MCF7 breast, with NCI-H226 lung and with NCI-H522 lung was more than 100 µM each time. Further, the TGI in the experiment with OVCAR-3 ovarian, in the experiment with OVCAR-4 ovarian, in the experiment with SF-268 CNS and with SK-OV-3 ovarian was more than 100 µM throughout.

On to `[N-]=[N+]=Nc1c(Cc2ccccc2)c(Cl)nc2ccccc12`, for which the TGI in the experiment with 786-0 renal was more than 100 µM; with A498 renal, 65.3 µM; with HCT-116 colon, 53 µM; with MCF7 breast, 58.8 µM; in the experiment with NCI-H226 lung, 59.7 µM; in the experiment with NCI-H522 lung it was more than 100 µM. For the same compound, the TGI in the experiment with OVCAR-3 ovarian is 38.4 µM; in the experiment on OVCAR-4 ovarian, more than 100 µM; in the experiment on SF-268 CNS it was more than 100 µM; in the experiment with SK-OV-3 ovarian, more than 100 µM.

Take `COc1cccc(N2C(=O)CSC2c2cccc(Oc3ccccc3)c2)c1` (stereo unspecified): the TGI in the experiment on 786-0 renal came to 24 µM; in the experiment with A498 renal it was 9.33 µM; with HCT-116 colon, 12 µM; in the experiment on MCF7 breast it was 7.13 µM; with NCI-H226 lung it was 69.1 µM; with NCI-H522 lung, 20.6 µM. The TGI in the experiment on OVCAR-3 ovarian is 92.9 µM; in the experiment with OVCAR-4 ovarian, 87.5 µM; in the experiment with SF-268 CNS, 42.9 µM; with SK-OV-3 ovarian, more than 100 µM.

In the case of `COc1cc(/C=C2\C(=O)N(c3cccc([N+](=O)[O-])c3)C(c3ccccc3)S2(=O)=O)cc(OC)c1OC` (stereo unspecified), the TGI with 786-0 renal, in the experiment with A498 renal, with HCT-116 colon, in the experiment with MCF7 breast, in the experiment on NCI-H226 lung and in the experiment on NCI-H522 lung was more than 100 µM each time. For the same compound, the TGI in the experiment on OVCAR-3 ovarian, in the experiment on OVCAR-4 ovarian and in the experiment on SK-OV-3 ovarian was more than 100 µM throughout.

In the case of `c1ccc(/C(=N/Nc2nc3ccccc3s2)C2CCCCC2)nc1`, the TGI with 786-0 renal amounted to 21.9 µM; with A498 renal, 31.4 µM; in the experiment on HCT-116 colon, 14.8 µM; in the experiment on MCF7 breast, 6.01 µM; with NCI-H226 lung, 27.5 µM; in the experiment with NCI-H522 lung it was 7.32 µM. Further, the TGI in the experiment on OVCAR-3 ovarian stood at 7.6 µM; in the experiment on OVCAR-4 ovarian it was 22.3 µM; in the experiment on SF-268 CNS, 25 µM; with SK-OV-3 ovarian, 18.7 µM.

As to `O=[N+]([O-])c1ccccc1OCCOc1ccccc1[N+](=O)[O-]`, the TGI in the experiment on 786-0 renal, in the experiment on A498 renal, in the experiment on HCT-116 colon, in the experiment on MCF7 breast, in the experiment on NCI-H226 lung and in the experiment on NCI-H522 lung was more than 100 µM each time. The TGI in the experiment on OVCAR-3 ovarian, in the experiment on OVCAR-4 ovarian, with SF-268 CNS and in the experiment on SK-OV-3 ovarian was more than 100 µM in each case.

In the case of `CC(C)/C(Cl)=N/OC(=O)Nc1ccc(Br)cc1`, the TGI in the experiment with 786-0 renal came to 3.63 µM; with A498 renal, 33.8 µM; in the experiment on HCT-116 colon, 10.4 µM; in the experiment on MCF7 breast, 24.9 µM; in the experiment on NCI-H226 lung, 30.5 µM; with NCI-H522 lung, 2.97 µM. Further, the TGI amounted to 9.5 µM in the experiment with OVCAR-3 ovarian, 31.8 µM in the experiment on OVCAR-4 ovarian, 34 µM with SF-268 CNS and 30.3 µM in the experiment with SK-OV-3 ovarian.

Regarding `C#CCNC(CSSCC(N)C(=O)O)C(=O)O` (stereo unspecified), the TGI in the experiment on 786-0 renal, with A498 renal, in the experiment with HCT-116 colon, with MCF7 breast, in the experiment with NCI-H226 lung and with NCI-H522 lung was more than 100 µM in each case. In addition, the TGI with OVCAR-3 ovarian, in the experiment on OVCAR-4 ovarian, in the experiment on SF-268 CNS and with SK-OV-3 ovarian was more than 100 µM in each case.

On to `c1ncn(C23C4C5C6C4C2C6C53)n1` (stereo unspecified), for which the TGI in the experiment on 786-0 renal, with A498 renal, with HCT-116 colon, with MCF7 breast, with NCI-H226 lung and in the experiment with NCI-H522 lung was more than 100 µM throughout. Also, the TGI in the experiment on SF-268 CNS and in the experiment on SK-OV-3 ovarian was more than 100 µM throughout.

For the compound `COc1ccc(N2CC(=O)N(C(=O)COc3ccc(OCC(=O)N4C(=O)CN(c5ccc(OC)cc5)C4=S)cc3)C2=S)cc1`, the TGI with 786-0 renal is more than 100 µM; with A498 renal, more than 100 µM; in the experiment on HCT-116 colon, 63.3 µM; in the experiment on MCF7 breast, more than 100 µM; with NCI-H226 lung, more than 100 µM; with NCI-H522 lung it was more than 100 µM. For the same compound, the TGI in the experiment on OVCAR-4 ovarian, with SF-268 CNS and in the experiment on SK-OV-3 ovarian was more than 100 µM in each case.

For `Cc1cc([NH-])c([NH-])cc1C.[Cl][Pt+2][Cl]`, the GI50 is 33.4 µM in the experiment on A498 renal; 14.2 µM in the experiment on HCT-116 colon; 7.37 µM with MCF7 breast; 13.5 µM in the experiment with NCI-H226 lung; 7.39 µM in the experiment on NCI-H522 lung; 17.9 µM with OVCAR-3 ovarian. Also, the GI50 in the experiment with OVCAR-4 ovarian is 16.9 µM; in the experiment on SF-268 CNS, 6.27 µM; in the experiment with SK-OV-3 ovarian, more than 96.8 µM. Also, the TGI in the experiment on A498 renal was more than 87.6 µM; in the experiment on HCT-116 colon it was 32.9 µM; in the experiment with MCF7 breast, 25.2 µM; with NCI-H226 lung, 64 µM; in the experiment with NCI-H522 lung, 24.5 µM; in the experiment with OVCAR-3 ovarian, 33.6 µM. For the same compound, the TGI in the experiment with OVCAR-4 ovarian was 31.7 µM; in the experiment on SF-268 CNS it was 34.6 µM; in the experiment with SK-OV-3 ovarian, more than 100 µM.

Consider `C[C@H](c1ccccc1)N1C(=O)[C@@H](O)[C@H]1[C@H](CO)OCc1ccccc1`, for which the TGI in the experiment on 786-0 renal, in the experiment on A498 renal, in the experiment with HCT-116 colon, in the experiment on MCF7 breast, in the experiment on NCI-H226 lung and in the experiment with OVCAR-3 ovarian was more than 100 µM each time. Besides, the TGI with OVCAR-4 ovarian, in the experiment on SF-268 CNS and in the experiment on SK-OV-3 ovarian was more than 100 µM throughout.

Turning to `Cc1ccc2nc(SCC(=O)N=Nc3c(O)[nH]c4ccccc34)n(-c3ccccc3)c(=O)c2c1`, the TGI with 786-0 renal amounted to 29.5 µM; in the experiment on A498 renal, 28.1 µM; with HCT-116 colon it was 28.4 µM; in the experiment with MCF7 breast it was 29.6 µM; with NCI-H226 lung it was 35.2 µM; with OVCAR-3 ovarian, 41.9 µM. Also, the TGI in the experiment on OVCAR-4 ovarian came out at 25.9 µM; with SF-268 CNS it was 26.6 µM; with SK-OV-3 ovarian, 26.7 µM.
